compound,measurement,setting,value
CC[C@H]1OC(=O)[C@H](C)[C@@H](O[C@H]2C[C@@](C)(OC)[C@@H](O)[C@H](C)O2)[C@H](C)[C@@H](O[C@@H]2O[C@H](C)C[C@H](N(C)C)[C@H]2O)[C@](C)(O)C[C@@H](C)CN(C)[C@H](C)[C@@H](O)[C@]1(C)O.O,solubility (mole fraction),"in acetone, 278.15 K",0.0305
same,solubility (mole fraction),"in acetone, 283.15 K",0.0329
same,solubility (mole fraction),"in acetone, 288.15 K",0.0353
same,solubility (mole fraction),"in acetone, 293.15 K",0.0386
same,solubility (mole fraction),"in acetone, 298.15 K",0.0424
same,solubility (mole fraction),"in acetone, 303.15 K",0.0464
same,solubility (mole fraction),"in acetone, 308.15 K",0.0512
same,solubility (mole fraction),"in acetone, 313.15 K",0.0569
same,solubility (mole fraction),"in acetone, 318.15 K",0.063
same,solubility (mole fraction),"in acetone, 323.15 K",0.0721
same,solubility (mole fraction),"in ethanol, 278.15 K",0.0299
same,solubility (mole fraction),"in ethanol, 283.15 K",0.0325
same,solubility (mole fraction),"in ethanol, 288.15 K",0.0348
same,solubility (mole fraction),"in ethanol, 293.15 K",0.0371
same,solubility (mole fraction),"in ethanol, 298.15 K",0.0406
same,solubility (mole fraction),"in ethanol, 303.15 K",0.0451
same,solubility (mole fraction),"in ethanol, 308.15 K",0.0491
same,solubility (mole fraction),"in ethanol, 313.15 K",0.0538
same,solubility (mole fraction),"in ethanol, 318.15 K",0.0573
same,solubility (mole fraction),"in ethanol, 323.15 K",0.0588
same,solubility (mole fraction),"in ethyl acetate, 278.15 K",0.0324
same,solubility (mole fraction),"in ethyl acetate, 283.15 K",0.0341
same,solubility (mole fraction),"in ethyl acetate, 288.15 K",0.0366
same,solubility (mole fraction),"in ethyl acetate, 293.15 K",0.0396
same,solubility (mole fraction),"in ethyl acetate, 298.15 K",0.0436
same,solubility (mole fraction),"in ethyl acetate, 303.15 K",0.0521
same,solubility (mole fraction),"in ethyl acetate, 308.15 K",0.0593
same,solubility (mole fraction),"in ethyl acetate, 313.15 K",0.0671
same,solubility (mole fraction),"in ethyl acetate, 318.15 K",0.0743
same,solubility (mole fraction),"in ethyl acetate, 323.15 K",0.081
same,solubility (mole fraction),"in isopropanol, 278.15 K",0.0281
same,solubility (mole fraction),"in isopropanol, 283.15 K",0.0303
same,solubility (mole fraction),"in isopropanol, 288.15 K",0.0327
same,solubility (mole fraction),"in isopropanol, 293.15 K",0.0349
same,solubility (mole fraction),"in isopropanol, 298.15 K",0.0388
same,solubility (mole fraction),"in isopropanol, 303.15 K",0.0433
same,solubility (mole fraction),"in isopropanol, 308.15 K",0.0459
same,solubility (mole fraction),"in isopropanol, 313.15 K",0.0507
same,solubility (mole fraction),"in isopropanol, 318.15 K",0.0542
same,solubility (mole fraction),"in isopropanol, 323.15 K",0.0575
same,solubility (mole fraction),"in n-butanol, 278.15 K",0.0249
same,solubility (mole fraction),"in n-butanol, 283.15 K",0.0254
same,solubility (mole fraction),"in n-butanol, 288.15 K",0.0274
same,solubility (mole fraction),"in n-butanol, 293.15 K",0.0282
same,solubility (mole fraction),"in n-butanol, 298.15 K",0.0301
same,solubility (mole fraction),"in n-butanol, 303.15 K",0.0324
same,solubility (mole fraction),"in n-butanol, 308.15 K",0.0356
same,solubility (mole fraction),"in n-butanol, 313.15 K",0.0386
same,solubility (mole fraction),"in n-butanol, 318.15 K",0.0422
same,solubility (mole fraction),"in n-butanol, 323.15 K",0.0466

# From BigSolDB 2.1
